Assay [1] relates to MEK1 phosphorylation in the A375 human melanoma cell line. Nature of the assay: cells. The settings on record: A-375, read-out: pMEK IC50.
For assay [2], the system named is A375 cells. Nature of the assay: cells. The settings on record: Homo sapiens, A-375, read-out: A375 Viability EC50.
The target in assay [3] is RAF kinases (Homo sapiens, UniProt P15056). Nature of the assay: biochemical.
The target in assay [4] is RAF kinases (Homo sapiens, UniProt P04049). Nature of the assay: biochemical.
Chain of RAF kinases (Homo sapiens, UniProt P04049) (P04049 whole entry): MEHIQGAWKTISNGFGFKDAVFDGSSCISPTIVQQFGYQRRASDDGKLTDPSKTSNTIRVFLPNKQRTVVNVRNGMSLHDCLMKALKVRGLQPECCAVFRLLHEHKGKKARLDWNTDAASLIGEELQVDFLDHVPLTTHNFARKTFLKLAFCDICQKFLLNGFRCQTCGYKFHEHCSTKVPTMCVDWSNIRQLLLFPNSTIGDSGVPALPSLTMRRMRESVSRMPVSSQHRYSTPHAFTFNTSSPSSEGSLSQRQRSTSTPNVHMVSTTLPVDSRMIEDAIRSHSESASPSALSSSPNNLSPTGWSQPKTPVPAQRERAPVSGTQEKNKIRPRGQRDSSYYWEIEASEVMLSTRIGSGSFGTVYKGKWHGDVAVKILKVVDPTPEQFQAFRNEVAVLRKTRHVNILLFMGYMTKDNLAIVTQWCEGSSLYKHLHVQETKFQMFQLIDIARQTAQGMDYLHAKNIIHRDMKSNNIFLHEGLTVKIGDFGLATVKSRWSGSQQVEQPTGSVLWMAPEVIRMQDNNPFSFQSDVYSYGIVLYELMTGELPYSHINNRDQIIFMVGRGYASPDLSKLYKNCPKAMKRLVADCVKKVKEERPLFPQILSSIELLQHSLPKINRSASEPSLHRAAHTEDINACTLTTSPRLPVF

This note sets out measurements from patent publication US8618289B2 (Ambit Biosciences Corporation, priority 2008, dated 2013).

Counter-ions that a name gives are not always drawn. Some results are limits rather than exact numbers.

The IC50 is the concentration that gives 50% inhibition. By EC50 is commonly meant the concentration at which the effect is half-maximal. The Kd is the equilibrium constant for the complex coming apart.

Chain of RAF kinases (Homo sapiens, UniProt P15056) (P15056 whole entry): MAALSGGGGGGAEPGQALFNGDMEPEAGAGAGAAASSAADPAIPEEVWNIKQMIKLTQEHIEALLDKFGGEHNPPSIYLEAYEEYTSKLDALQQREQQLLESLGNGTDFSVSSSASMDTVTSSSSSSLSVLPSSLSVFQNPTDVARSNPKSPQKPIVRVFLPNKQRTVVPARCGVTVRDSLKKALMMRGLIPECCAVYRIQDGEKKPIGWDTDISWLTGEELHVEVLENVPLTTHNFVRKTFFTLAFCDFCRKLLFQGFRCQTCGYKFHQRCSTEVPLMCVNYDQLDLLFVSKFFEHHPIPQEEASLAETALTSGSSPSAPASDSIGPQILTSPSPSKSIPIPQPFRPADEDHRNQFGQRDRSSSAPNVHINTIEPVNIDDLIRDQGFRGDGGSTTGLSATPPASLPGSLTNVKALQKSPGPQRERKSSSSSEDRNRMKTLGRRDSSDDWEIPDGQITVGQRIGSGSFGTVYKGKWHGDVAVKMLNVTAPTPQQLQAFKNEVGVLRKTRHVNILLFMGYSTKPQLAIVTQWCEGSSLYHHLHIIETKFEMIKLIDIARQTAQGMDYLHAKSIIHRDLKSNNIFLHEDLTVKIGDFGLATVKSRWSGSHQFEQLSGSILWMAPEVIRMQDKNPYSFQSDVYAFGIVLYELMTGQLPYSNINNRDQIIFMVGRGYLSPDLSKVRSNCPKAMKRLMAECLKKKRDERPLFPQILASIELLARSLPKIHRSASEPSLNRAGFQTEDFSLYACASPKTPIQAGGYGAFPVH

`COc1cc2ncnc(Oc3cccc(NC(=O)Nc4ccc(OC(F)(F)F)cc4)c3)c2cc1OC` [Ex 177, 1-(3-(6,7-dimethoxyquinazolin-4-yloxy)phenyl)-3-(4-(trifluoromethoxy)phenyl)urea]: in assay [1], the IC50 was > 1000 nM. Besides, the EC50 in assay [2] was > 1000 nM. In assay [3], this compound yielded a Kd of 250 to 500 nM.
For the compound `COc1cc2ncnc(Sc3cccc(NC(=O)Nc4cc(C5CCCC5)on4)c3)c2cc1OC` [Ex 201, 1-(5-cyclopentylisoxazol-3-yl)-3-(3-(6,7-dimethoxyquinazolin-4-ylthio)phenyl)urea], the IC50 in assay [1] lay within 250 to 500 nM. Moreover, in assay [2], the EC50 was > 1000 nM. Further, the Kd in assay [3] was in the range of 250 to 500 nM.
Take `COc1cc2ncnc(Oc3cccc(NC(=O)Nc4cc(C(C)(C)C)on4)c3)c2cc1O[C@H]1CCN(CC(F)F)C1` [Ex 110, (S)-1-(5-tert-butylisoxazol-3-yl)-3-(3-(6-(1-(2,2-difluoroethyl)pyrrolidin-3-yloxy)-7-methoxyquinazolin-4-yloxy)phenyl)urea]: the half-inhibitory concentration (IC50) in assay [1] was < 250 nM. The EC50 in assay [2] was < 250 nM. In assay [3], this compound gave a Kd of 250 to 500 nM.
Take `COc1cc2ncnc(Oc3cccc(NC(=O)Nc4cc(C(C)(CF)CF)on4)c3)c2cc1OC` [Ex 162, 1-[5-(1,3-difluoro-2-methylpropan-2-yl)isoxazol-3-yl]-3-[3-(6,7-dimethoxyquinazolin-4-yloxy)phenyl]urea]: the IC50 in assay [1] was < 250 nM. Also, the EC50 in assay [2] is < 250 nM. Moreover, the Kd in assay [3] was 250 to 500 nM.
Consider `COc1cc2c(Sc3cccc(NC(=O)Nc4cc(C(C)(C)C)on4)c3)ncnc2cc1OCCCN1CCC(CO)CC1` [Ex 74, 1-(5-tert-butylisoxazol-3-yl)-3-(3-(7-(3-(4-(hydroxymethyl)piperidin-1-yl)propoxy)-6-methoxyquinazolin-4-ylthio)phenyl)urea], for which, in assay [1], the IC50 was < 250 nM. Also, the EC50 in assay [2] was in the range of 250 to 500 nM. The same compound yielded a Kd in assay [3] of 250 to 500 nM.
For `COc1cc2ncnc(Oc3cccc(NC(=O)Nc4cc(C(C)(C)CO)on4)c3)c2cc1OC` [Ex 131, 1-(3-(6,7-dimethoxyquinazolin-4-yloxy)phenyl)-3-(5-(1-hydroxy-2-methylpropan-2-yl)isoxazol-3-yl)urea], the IC50 in assay [1] lay within 500 to 1000 nM. Also, in assay [2], the EC50 was > 1000 nM. Moreover, the Kd in assay [3] was 250 to 500 nM.
For the compound `COc1cc2ncnc(Sc3cccc(NC(=O)Nc4cc(C(C)(C)C)on4)c3)c2cc1OCCN1CCOCC1` [Ex 70, 1-(5-tert-butylisoxazol-3-yl)-3-(3-(7-methoxy-6-(2-morpholinoethoxy)quinazolin-4-ylthio)phenyl)urea], the IC50 in assay [1] is < 250 nM. Besides, in assay [2], the EC50 is < 250 nM. In addition, the Kd in assay [3] was in the range of 250 to 500 nM.
On to `COCCOc1ccc2ncnc(Oc3cccc(NC(=O)Nc4cc(C(C)(C)C)on4)c3)c2c1` [Ex 40, 1-(5-tert-butylisoxazol-3-yl)-3-(3-(6-(2-methoxyethoxy)quinazolin-4-yloxy)phenyl)urea], for which the IC50 in assay [1] is < 250 nM. For the same compound, in assay [2], the EC50 lay within 500 to 1000 nM. This compound returned a Kd in assay [4] of 250 to 500 nM.
Consider `COc1cc2ncnc(Sc3cccc(NC(=O)Nc4cc(C(C)(C)C)on4)c3)c2cc1OCCCN1CCS(=O)(=O)CC1` [Ex 62, 1-(5-tert-butyl-isoxazol-3-yl)-3-(3-{6-[3-(1,1-dioxo-thiomorpholin-4-yl)-propoxy]-7-methoxy-quinazolin-4-ylsulfanyl}-phenyl)-urea], for which the IC50 in assay [1] is < 250 nM. In assay [2], the EC50 was < 250 nM. This compound also had a Kd in assay [3] of 250 to 500 nM.
`COc1cc2ncnc(Oc3cccc(NC(=O)Nc4cccc(C(C)C)c4)c3)c2cc1OC` [Ex 144, 1-(3-(6,7-dimethoxyquinazolin-4-yloxy)phenyl)-3-(3-isopropylphenyl)urea]: the IC50 in assay [1] fell in the range of 250 to 500 nM. Further, in assay [2], the EC50 is > 1000 nM. Also, in assay [3], the Kd lay in the range of 250 to 500 nM.
Take `CCOc1cc2c(Oc3cccc(NC(=O)Nc4cc(C(C)(C)C)on4)c3)ncnc2cc1OC` [Ex 11, 1-(5-tert-butylisoxazol-3-yl)-3-(3-(6-ethoxy-7-methoxyquinazolin-4-yloxy)phenyl)urea]: the IC50 in assay [1] was < 250 nM. Besides, the EC50 in assay [2] is < 250 nM. In assay [4], this compound yielded an equilibrium dissociation constant (Kd) of 500 to 1000 nM.
Take `COc1cc2ncnc(Oc3cc(NC(=O)Nc4cc(C(C)(C)C)on4)ccc3F)c2cc1OC` [Ex 9, 1-(5-tert-butylisoxazol-3-yl)-3-(3-(6,7-dimethoxyquinazolin-4-yloxy)-4-fluorophenyl)urea]: the IC50 in assay [1] is < 250 nM. In assay [2], the EC50 was < 250 nM. This compound had a Kd in assay [4] of 500 to 1000 nM.
As to `COc1cc2ncnc(Sc3cccc(NC(=O)Nc4cc(C(C)(CF)CF)on4)c3)c2cc1OC` [Ex 191, 1-[5-(1,3-difluoro-2-methylpropan-2-yl)isoxazol-3-yl]-3-[3-(6,7-dimethoxyquinazolin-4-ylthio)phenyl]urea], in assay [1], the IC50 was < 250 nM. The half-maximal effective concentration (EC50) in assay [2] was < 250 nM. This compound gave a Kd in assay [3] of 250 to 500 nM.
On to `COc1cc2c(Oc3cccc(NC(=O)Nc4cc(C(C)(C)C)on4)c3)ncnc2cc1OCCCN1CCN(CCO)CC1` [Ex 30, 1-(5-tert-butylisoxazol-3-yl)-3-(3-(7-(3-(4-(2-hydroxyethyl)piperazin-1-yl)propoxy)-6-methoxyquinazolin-4-yloxy)phenyl)urea], for which, in assay [1], the IC50 was < 250 nM. For the same compound, the EC50 in assay [2] is < 250 nM. Further, in assay [4], the Kd fell in the range of 250 to 500 nM.
In the case of `COc1cc2ncnc(Oc3cccc(NC(=O)Nc4cccc(C(C)(C)C)c4)c3)c2cc1OC` [Ex 118, 1-(3-tert-butylphenyl)-3-(3-(6,7-dimethoxyquinazolin-4-yloxy)phenyl)urea], the IC50 in assay [1] was 250 to 500 nM. The EC50 in assay [2] was > 1000 nM. Also, the Kd in assay [3] was 250 to 500 nM.
With `COc1cc2ncnc(Oc3cccc(NC(=O)Nc4ccc(C(F)(F)F)cc4)c3)c2cc1OC` [Ex 183, 1-(3-(6,7-dimethoxyquinazolin-4-yloxy)phenyl)-3-(4-(trifluoromethyl)phenyl)urea], the IC50 in assay [1] is 500 to 1000 nM. In addition, in assay [2], the EC50 was > 1000 nM. The compound further gave a Kd in assay [3] of 250 to 500 nM.
`CCOc1cc2ncnc(Oc3cccc(NC(=O)Nc4cc(C(C)(C)C)on4)c3)c2cc1OC` [Ex 6, 1-(5-tert-butylisoxazol-3-yl)-3-[3-(7-ethoxy-6-methoxyquinazolin-4-yloxy)phenyl]urea hydrochloride]: in assay [1], the IC50 is < 250 nM. For the same compound, the EC50 in assay [2] lay in the range of 250 to 500 nM. This compound showed a Kd in assay [4] of 500 to 1000 nM.
For `COc1cc2ncnc(Oc3cccc(NC(=O)Nc4cc(C(C)(C)C)nn4C)c3)c2cc1OC` [Ex 158, 1-(3-tert-butyl-1-methyl-1H-pyrazol-5-yl)-3-(3-(6,7-dimethoxyquinazolin-4-yloxy)phenyl)urea] the same measures were 250 to 500 nM, > 1000 nM and 500 to 1000 nM.
As to `COc1cc2c(Oc3cccc(NC(=O)Nc4cc(C(C)(C)C)on4)c3)ncnc2cc1O[C@H]1CCNC1` [Ex 96, (S)-1-(5-tert-butylisoxazol-3-yl)-3-(3-(6-methoxy-7-(pyrrolidin-3-yloxy)quinazolin-4-yloxy)phenyl)urea dihydrochloride], the IC50 in assay [1] lay in the range of 250 to 500 nM. The EC50 in assay [2] was > 1000 nM. For the same compound, the Kd in assay [3] was 250 to 500 nM.
In the case of `COc1cc2ncnc(Sc3cccc(NC(=O)Nc4cc(C(C)(C)F)no4)c3)c2cc1OC` [Ex 187, 1-(3-(6,7-dimethoxyquinazolin-4-ylthio)phenyl)-3-(3-(2-fluoropropan-2-yl)isoxazol-5-yl)urea], the IC50 in assay [1] was < 250 nM. Further, in assay [2], the EC50 was > 1000 nM. Moreover, the Kd in assay [3] lay within 250 to 500 nM.
For `COc1cc2ncnc(Sc3cccc(NC(=O)Nc4cc(C(C)(C)C)on4)c3)c2cc1OCCCN1CCN(CCO)CC1` [Ex 61, 1-(5-tert-butylisoxazol-3-yl)-3-(3-(6-(3-(4-(2-hydroxyethyl)piperazin-1-yl)propoxy)-7-methoxyquinazolin-4-ylthio)phenyl)urea] the same measures were > 1000 nM, > 1000 nM and 250 to 500 nM.
Regarding `COc1cc2ncnc(Oc3cccc(NC(=O)Nc4cc(C(C)(C)C)on4)c3)c2cc1O` [Ex 107, 1-(5-tert-butylisoxazol-3-yl)-3-(3-(6-hydroxy-7-methoxyquinazolin-4-yloxy)phenyl)urea], in assay [1], the half-inhibitory concentration (IC50) was < 250 nM. In assay [2], the EC50 is 250 to 500 nM. This compound also had a Kd in assay [3] of 250 to 500 nM.
Turning to `COc1cc2c(Oc3cccc(NC(=O)Nc4cc(C(C)(C)C)on4)c3)ncnc2cc1OCCCN1CCN(C)CC1` [Ex 28, 1-(5-tert-butylisoxazol-3-yl)-3-(3-(6-methoxy-7-(3-(4-methylpiperazin-1-yl)propoxy)quinazolin-4-yloxy)phenyl)urea], in assay [1], the IC50 is < 250 nM. Besides, the EC50 in assay [2] was < 250 nM. The Kd in assay [3] was in the range of 250 to 500 nM.
For the compound `COc1cc2ncnc(Sc3cccc(NC(=O)Nc4cccc(C(C)(C)C)c4)c3)c2cc1OC` [Ex 120, 1-(3-tert-butylphenyl)-3-(3-(6,7-dimethoxyquinazolin-4-ylthio)phenyl)urea], in assay [1], the IC50 was in the range of 250 to 500 nM. Besides, the EC50 in assay [2] was > 1000 nM. Moreover, the Kd in assay [3] lay in the range of 250 to 500 nM.
For `COc1cc2c(Oc3cccc(NC(=O)Nc4cc(C(C)(C)C)on4)c3)ncnc2cc1O[C@@H]1CCNC1` [Ex 98, (R)-1-(5-tert-butylisoxazol-3-yl)-3-(3-(6-methoxy-7-(pyrrolidin-3-yloxy)quinazolin-4-yloxy)phenyl)urea dihydrochloride], in assay [1], the IC50 lay within 500 to 1000 nM. Moreover, in assay [2], the EC50 was > 1000 nM. In assay [3], the Kd is 250 to 500 nM.
For `COc1cc2ncnc(Oc3cccc(NC(=O)Nc4cc(C(C)(C)C)on4)c3)c2cc1OCCN1CCCCC1` [Ex 16, 1-(5-tert-butylisoxazol-3-yl)-3-(3-(7-methoxy-6-(2-(piperidin-1-yl)ethoxy)quinazolin-4-yloxy)phenyl)urea] the same measures were 250 to 500 nM, > 1000 nM and 500 to 1000 nM.
For `COc1cc2ncnc(Sc3cccc(NC(=O)Nc4cccc(C(F)(F)F)c4)c3)c2cc1OC` [Ex 185, 1-(3-(6,7-dimethoxyquinazolin-4-ylthio)phenyl)-3-(3-(trifluoromethyl)phenyl)urea] the same measures were 500 to 1000 nM, > 1000 nM and 250 to 500 nM.
